Assay results reported in patent US20240285616A1, “THERAPEUTIC TREATMENT OF CHROMATINOPATHIES” (UNIVERSITA' DEGLI STUDI DI TRENTO, priority 2020, published 2024).
Like-named read-outs stand apart in the source and are kept apart here.

Experiments:
MLL4^Q4092X MSCs [1] = experiment: Nuclear morphology, chromatin compaction and Lamin A/C after HDAC inhibitor treatment; format: cell-based, human
Procedure: (§1) For immunofluorescence assays, cells were seeded on coverslips coated with 0.1% gelatin (Sigma Aldrich #G1393). When needed, cells where fixed with 4% paraformaldeide for […] at 4° C. Coverslips were processed as described: permeabilization and blocking with PBS/1% BSA/5% goat serum/0.5% Triton X-100 (blocking solution) for 1 hour at room temperature, followed by incubation with primary antibody (diluted in the blocking solution) for 2 hours at RT (or overnight at 4° C., depending on the used primary antibody), 3-5 washes in PBS and incubation with secondary antibodies (diluted in the blocking solution), DRAQ5 for nuclear staining and phalloidin-TRITC for 1 h at room temperature. Images were acquired using a Leica TCS SP5 confocal microscope with HCX PL APO 63×/1.40 objective. Confocal z stacks were acquired with sections of 0.5 μm. In cases where image analysis was performed, image acquisition settings were kept constant.
Confocal imaging data analyses were performed using Image J software. For 2D/3D analysis RDAQ5 DNA dye was used to identify the nucleus and define the ROI. Then the fluorescence intensity and physical parameters were determined. For the measure of volume and flatness the inventors performed a 3D analyses using the “3D plugin 596 suite”, an Image J plugin.

MLL4^Q4092X MSCs [2] = experiment: H3K27me3 level and PcG condensate clustering after HDAC inhibitor treatment; format: cell-based, human
Procedure: as §1
In order to automatically detect and quantify PcG and TrxG complex proteins in fluorescence cell image z-stacks, the inventors developed an algorithm that implements a method derived from (Gregoretti et al., 2016) with variants and adaptations. The algorithm performs the 2D segmentation of cell nuclei and the detection of Protein Bodies (PBs) for each slice of the stack, followed by the 3D reconstruction and identification of nuclei and PBs. […]

MLL4^Q4092X MSCs [3] = experiment: Nuclear to cytosolic localization of YAP/TAZ by immunofluorescence; format: cell-based, human; conditions: sparse condition
Procedure: Cell lines used in this study include NIH 3T3 (ATCC), HEK293T (ATCC), human primary fibroblasts derived from either healthy of Kabuki patients (Genomic and Genetic Disorders Biobank) and hTERT-immortalized human adipose-derived MSCs. Primary fibroblasts, NIH3T3 and HEK293T were maintained at 37° C. and 5% CO2 in DMEM medium supplemented with 10% Fetal Bovine Serum (Euroclone #ECS0180L), while MSCs were cultured in 1:1 DMEM/F-12 medium (Gibco #11320-074) supplemented with 10% Fetal Bovine Serum (Euroclone #ECS0180L).
For immunofluorescence assays, cells were seeded on coverslips coated with 0.1% gelatin (Sigma Aldrich #G1393). When needed, cells where fixed with 4% paraformaldeide for minutes at 4° C. […]
To quantify the nuclear to cytosolic localization of YAP-TAZ, the inventors adapted previously published MATLAB routines (Zambrano et al., 2016). […]
To estimate the average cytosolic intensity per cell, a ring of 30 pixels width (approximately 7 microns) around each segmented nuclei was found. […] The inventors then calculated for each cell the Nuclear to Cytosolic Intensity (NCI) as the ratio of the background corrected nuclear and cytosolic average YAP-TAZ intensity.

Kmt2d morphants = format: in vivo; conditions: Kmt2d morphant medaka embryos grown in 0.15 μM VE822
Procedure: (§2) The Cab-strain of wt medaka fish (Oryzias latipes) was maintained following standard conditions (i.e., 12 h/12 h dark/light conditions at 27° C.). Embryos were staged according to the method proposed by Iwamatsu. All studies on fish were conducted in strict accordance with the institutional guidelines for animal research and approved by the Italian Ministry of Health: Department of Public Health, Animal Health, Nutrition, and Food Safety.
(§3) The available medaka olKmt2d (ENSORLT00000009505.1) genomic sequences were retrieved from a public database (UCSC Genome Browser, http://genome.ucsc.edu/) from human KMT2D (NM_003482.3) transcript. A morpholino (Mo: Gene Tools LLC, Oregon, USA) was designed against the ATG initiation codon within the 5′ untranslated region of the medaka ortholog of the (MO-Kmt2d: 5′-[…]-3′) of the medaka orthologous of the KMT2D gene. The specificity and inhibitory efficiencies of morpholino was determined as previously described (Conte et al., 2015). MO-Kmt2d was injected at 0.015 mM concentration into one blastomere at the one/two-cell stage. Off-target effects of the morpholino injections were excluded by repeated experiments with control morpholino or by co-injection with a p53 morpholino. For the drug treatment, chorions from injected and control embryos were removed with the hatching enzyme at St32. […]

MLL4^Q4092X MSCs [4] = experiment: DNA damage response in MSCs after ATR inhibition (immunofluorescence); format: cell-based, human; conditions: MLL4^Q4092X MSCs treated with ATR inhibitor
Procedure: as §1

MLL4^Q4092X MSCs [5] = experiment: Gene expression profiling (RNA-seq) of MSCs after VE-822 treatment; format: cell-based, human; conditions: 8 and 24 hours after ATR inhibition
Procedure: WT and MLL^4Q4092X MSCs were seeded as sparse (5000 cells/cm^2) condition and collected 48 h after plating, either untreated or at 8 and 24 hours after ATR inhibition (VE-822 treatment) (medchem express #HY-13902/cs-1861). Cells were directly lysed on plates with TRIzol (Thermo Fisher cat. #15596026), and total RNAs were extracted according to the manufacturer's instructions.
Contaminating genomic DNA was removed by DNase (Qiagen 843 cat. #79254) digestion. RNA quality and concentration were assessed using the 2100 Bioanalyzer (Agilent cat. #G2939BA) and the Qubit fluorometer (Thermo Fisher cat. #Q33226), respectively. 3′-RNA-seq libraries were prepared by using the QuantSeq 3′ mRNA-Seq Library Prep Kit FWD for Illumina (Lexogen cat. #015.24) and starting from 500 ng of total RNA. Libraries were sequenced as single reads of 50 bp with the Illumina HiSeq2500. Three independent biological replicates were performed for each cell line and time point and sequenced as independent libraries.
Raw reads from fastq files were first checked for their quality using FastQC and trimmed using Trimmomatic (Bolger et al., 2014). Trimmed reads were aligned to the reference human genome assembly hg38/GRCh38 using STAR with default parameters. […] For annotation of the reads to the genome, HOMER was employed with the following command ‘analyzeRepeats.pl rna hg38-count 3utr-rpkm’. […]

MLL4^Q4092X MSCs [6] = experiment: Chondrocyte micromass differentiation of MSCs (Alcian blue); format: cell-based, human; conditions: in vitro
Procedure: For chondrocyte micromass culture, a cell solution of 1.6× 10^7 viable cells/mL was produced. Micromass cultures were generated by seeding 5-μL droplets of cell solution. After cultivating micromass cultures for 2 hours under high humidity conditions, MSCs medium was added. The day after, the medium was changed with chondrogenesis medium (Gibco #A10069-01) supplemented with Stem-Pro Chondrogenesis supplement (Gibco #10064-01). For complete differentiation, cells were maintained in culture for three weeks changing media regularly.
To detect chondrogenesis, cells were washed with PBS and fixed in 4% formaldehyde for 1 hr at RT and then washed with PBS. Cells were incubated with Alcian blue solution (1 g/L in 0.1 M HCl, Sigma-Aldrich #B8438) for 6 hrs at room temperature and then extensively washed with PBS. To measure Alcian blue deposition, dry wells were incubated with 1 mL of 6 N Guanidine HCl for 1 hour and then the absorbance was measured with a spectofotometer measured between 600 and 650 nm.

olKmt2d = experiment: Kmt2d morpholino injection in medaka embryos (in vivo model for KS); parameters: species or system Oryzias latipes; conditions: MO-Kmt2d injected at 0.015 mM, of 1,600 injected embryos, later developmental stages
Procedure: as §2, §3

Compound: CC(/C=C/C(=O)NO)=C\[C@@H](C)C(=O)c1ccc(N(C)C)cc1 [TSA]
- chromatin organization and nuclear architecture (MLL4^Q4092X MSCs [1]): rescued the altered chromatin organization and nuclear architecture
- nuclear morphology and structure (relative abundance of Lamin A/C) (MLL4^Q4092X MSCs [1]): sufficient to re-establish proper nuclear morphology and structure
- H3K27me3 level (MLL4^Q4092X MSCs [2]): reduced
- clustering of PcG condensates (MLL4^Q4092X MSCs [2]): reduced

Compound: CNCc1ccc(-c2cc(-c3nc(-c4ccc(S(=O)(=O)C(C)C)cc4)cnc3N)on2)cc1 [VE-822, BERZOSERTIB]
- YAP/TAZ nuclear localization (mechanical properties of MSCs) (MLL4^Q4092X MSCs [3]): restored YAP/TAZ nuclear localization
- YAP/TAZ nuclear localization (mechanical properties of MSCs) (MLL4^Q4092X MSCs [3]; listed as VX-970): sufficient to restore the mechanical properties
- chondrogenic and skeleton defects, head morphogenesis (Kmt2d morphants; listed as ATR inhibitor): sufficient to restore the chondrogenic and skeleton defects
- chondrogenic and skeleton defects, head morphogenesis (Kmt2d morphants; listed as VX-970): sufficient to completely recover the chondrogenic and osteogenic defects
- DNA damage response (MLL4^Q4092X MSCs [4]): without affecting DNA damage response
- expression of a subset of ATR responsive genes (architectural chromatin genes) (MLL4^Q4092X MSCs [5]): rescued
- chondrogenic differentiation potential (MLL4^Q4092X MSCs [6]; listed as ATR inhibitor): partially rescued
- chondrogenic differentiation potential (MLL4^Q4092X MSCs [6]; listed as VX-970): sufficient to abolish the differentiation defects

Compound: MO-Kmt2d: morpholino against the ATG initiation codon of medaka Kmt2d, 5′-CCCTGCTGCTGCTTTGATCTTTTTG-3′ (all phosphorodiamidate morpholino (PMO))
- embryos with morphological cranio-facial anomalies (olKmt2d): 73±5%
